The values below come from ChEMBL document CHEMBL1146961, “Analogues of N-hydroxycinnamoylphenalkylamides as inhibitors of human melanocyte-tyrosinase” (Bioorg Med Chem Lett, 2006).

For the first series, the system named is Rattus norvegicus. In words: Toxicity in rat at 2 g/kg, po. The conditions noted are these: in vivo, 2000 mg/kg. Format: organism-based.
As to `O=C(CCc1ccc(O)c(O)c1)NCCc1ccc(O)cc1`, the Activity result is reported as “Not Active”.

Consider `O=C(/C=C/c1ccc(O)c(O)c1)NCCc1ccc(O)cc1`, for which the Activity entry is “Not Active”.

As for `O=C(CCc1ccc(O)cc1)NCCc1ccc(O)cc1`, the Activity result is “Not Active”.

The subject of a further series is Radical scavenging activity. In words: DPPH radical scavenging activity at 100 uM. The class given is functional.
Details: not given; call rule not given here
For orientation: Loss of DPPH colour is used to gauge radical scavenging.
Compound `O=C(/C=C/c1ccc(O)c(O)c1)NCCc1ccc(O)cc1` gave an Activity of 40%.

`COc1cc(CNC(=O)/C=C/c2ccc(O)c(O)c2)ccc1O` registered an Activity of 60%.

Consider `O=C(/C=C/c1ccc(O)c(O)c1)NCCc1ccc(O)c(O)c1`, for which the Activity was determined as 60%.

`COc1cc(/C=C/C(=O)NCCc2ccc(O)c(O)c2)ccc1O` had an Activity of 60%.
